Patent US20210341371A1, “CELL SCANNING TECHNOLOGIES AND METHODS OF USE THEREOF” (priority 2018, published 2021)
Read-outs that look alike come from different tables or passages of the source.

Tests used:
[1] = system: RBC membrane permeability; test: Cell scan of blood samples from patients/subjects (RBC membrane permeability parameters), including effect of medication taken; type: in vivo, human; settings: for effect of medication on the output of the cell scanning technologies: medication the subject has taken or is taking
Text: The present disclosure encompasses the recognition that one or more medications that the subject has taken or is taking may affect the output of the cell scanning technologies described herein. The effect of a particular medication on the output of the cell scanning technologies may vary by medication, e.g., vary in magnitude and/or in length of effect, and in some cases, a particular medication may have no effect at all. […] Accordingly, in some embodiments, provided methods further comprise determining whether or not the subject has taken or is taking a particular medication. In some embodiments, if the subject has taken a medication known to have a particular effect on the output of the cell scanning technologies, then a determined RBC membrane permeability parameter should be compared to a suitable reference control parameter (e.g., a reference control parameter determined in the presence or absence of the particular medication). In some embodiments, if the subject has taken a medication known to have a particular effect on the output of the cell scanning technologies, then further diagnostic assessment is warranted.
(§1) A sample of whole blood from a healthy volunteer was drawn into ACD anticoagulant. The unwashed sample was divided into aliquots and was analyzed using the Prior Shine Technology and/or the Provided Cell Scanning Technologies. The following outputs were obtained from the sample:
“Pk0” coincided with the minimum absolute osmotic pressure (e.g., most hypotonic pressure) to which a cell can be subjected without loss of integrity. Pk0 can be identified by determining the right-most extent of the intact cell population in the cell-by-cell graph, i.e., the point of osmolality immediately preceding the point at which the cells ruptured. In FIG. 1a, this minimum pressure is the “peak” 106. As the osmolality of the surrounding solution was reduced, the red blood cell ruptures and forms a ghost cell, which releases its contents into the surrounding medium.
Using the technologies described herein, a cell-by-cell analysis was converted into a plot of percent change of cell volume vs. osmolality (“Cell Scan Plot”) by converting the individual peak voltage into a cell volume, then calculating a mean volume for each 100 cells, and plotting the means to generate the Cell Scan Plot. The percentage change of cell volume at each osmolality is calculated and compared to the mean cell volume of an isotonic cell (e.g., FIG. 1b). On such a plot, Pk0 (see 101) is the osmotic pressure at which the net water flow is zero (i.e., when a cell achieved its maximum volume, i.e., when it is a perfect sphere). As described herein, in some embodiments, Pk0 can be used as an indicator of an individual's health status.
The Fluid Flux Curve (FFC) was determined by taking the first order derivative (with respect to osmolality) of Cell Scan Plot (FIG. 1c). In an FFC, Pk0 occurred at the zero crossing (101), which was where the slope of the Cell Scan Plot changes from positive to negative. A positive value on the FFC represented a net flow of fluid into the cell, while negative rates represented a net flow of fluid out of the cell. In the FFC, the positive peak 102 and negative peak 103 corresponded to the maximum and minimum, respectively, on the FFC. As used herein, “Pymax” is the magnitude of fluid flux at the maximum, and “Pymin” is the magnitude of fluid flux at the minimum.
Table 7 is organized by indication and reports the mean values for various parameters tested.
A person was tested using cell scanning technologies described herein at a check-up 2 months after being diagnosed with grand mal epilepsy. The results were within normal limits (as they were on a prior visit), except for the Pk0 which had shifted approx. 10 mOsm/kg to 136 mOsm/kg. Such a change may be attributed to their prescribed medication, phenytoin.

[2] = system: RBC membrane permeability; type: cell-based, human
Text: The present disclosure also provides technologies for assessing (e.g., identifying and/or characterizing) agents and/or other compositions that modulate RBC membrane permeability (collectively, “RBC Permeability Modulating Agents”). Provided technologies may be useful for identifying RBC Permeability Modulating Agents. In some instances, a RBC Permeability Modulating Agent is expected to effect the health state of a subject exposed it (e.g., a beneficial or adverse effect). For example, provided methods allow for the evaluation of agents and/or compositions intended for use in humans (e.g., a drug candidate or prosthetic material).
In some embodiments, a sample is analyzed within a particular time period after being subjected to an agent or composition (e.g., within about 5 minutes, about 10 minutes, about 30 minutes, about 1 hour, about 2 hours, or about 5 hours). In some embodiments, a method further comprises evaluating dose response of an agent or composition (e.g., by subjecting each of a plurality of samples to varying concentrations of agent or composition).
as §1
“Pk0” coincided with the minimum absolute osmotic pressure (e.g., most hypotonic pressure) to which a cell can be subjected without loss of integrity. Pk0 can be identified by determining the right-most extent of the intact cell population in the cell-by-cell graph, i.e., the point of osmolality immediately preceding the point at which the cells ruptured. In FIG. 1a, this minimum pressure is the “peak” 106. […]
Using the technologies described herein, a cell-by-cell analysis was converted into a plot of percent change of cell volume vs. osmolality (“Cell Scan Plot”) by converting the individual peak voltage into a cell volume, then calculating a mean volume for each 100 cells, and plotting the means to generate the Cell Scan Plot. The percentage change of cell volume at each osmolality is calculated and compared to the mean cell volume of an isotonic cell (e.g., FIG. 1b). […]
The Fluid Flux Curve (FFC) was determined by taking the first order derivative (with respect to osmolality) of Cell Scan Plot (FIG. 1c). […]
Using the technologies provided herein, agents were tested for potential adverse in vivo effects prior to use in humans and/or animals. For example, a blood sample from a healthy volunteer was contacted with amphotericin B (0.5 μg/mL) and was analyzed using the provided cell scanning technologies. […]

Compound: CC(=O)CC(c1ccccc1)c1c(O)c2ccccc2oc1=O (stereo not drawn) [warfarin]
- P0 (TOTAL) ([1]; mean value for patients with pulmonary embolus on warfarin, all patients (N=4)): 149.4
- P0 (died) ([1]; mean value for patients with pulmonary embolus on warfarin, subset who died (N=1)): 157

Compound: O=C1NC(=O)C(c2ccccc2)(c2ccccc2)N1 [phenytoin]
- shift of Pk0 versus prior visit ([1]; Patient X on prescribed phenytoin, change may be attributed to the medication): approx. 10 mOsm/kg
- Pk0 ([1]; Patient X, person with grand mal epilepsy, 2 months after diagnosis, on prescribed phenytoin, change may be attributed to the medication): 136 mOsm/kg
- effect of medication on the output of the cell scanning technologies [1]: have an effect on the output

Compound: [Cl][Hg][Cl] [HgCl2]
- flow of water across the membrane ([2]; unwashed whole blood from a healthy volunteer treated with 65 μM HgCl2): no flow of water across the membrane was detected
- RBC membrane permeability ([2]; unwashed whole blood from a healthy volunteer treated with 65 μM HgCl2, monitored over time): essentially eliminated

Compound: CC(C)(S)[C@@H](N)C(=O)O [penicillamine]
- effect of medication on the output of the cell scanning technologies [1]: have an effect on the output

Compound: C[C@@H]1[C@H](O)[C@@H](C)/C=C/C=C/C=C/C=C/C=C/C=C/C=C/[C@H](O[C@@H]2O[C@H](C)[C@@H](O)[C@H](N)[C@@H]2O)C[C@@H]2O[C@](O)(C[C@@H](O)C[C@@H](O)[C@H](O)CC[C@@H](O)C[C@@H](O)CC(=O)O[C@H]1C)C[C@H](O)[C@H]2C(=O)O [amphotericin B]
- effect of medication on the output of the cell scanning technologies [1]: have an effect on the output
- Pk0 ([2]; blood sample from a healthy volunteer contacted with amphotericin B 0.5 μg/mL, normal Pk0 approx. 142 mOsm/kg): 85 mOsm/kg

Compound: CCC1(c2ccccc2)C(=O)NC(=O)NC1=O [phenobarbitone]
- effect of medication on the output of the cell scanning technologies [1]: have an effect on the output

Compound: OCCS [beta-mercaptoethanol]
- effect of HgCl2 on RBC membrane permeability after addition of chelator [2]: the effect was reversed and RBC membrane permeability was restored
